Laboratory results taken from PubChem BioAssay (NCI).
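The compound was tested at five concentrations on cells cultured in 96-well plates, with a 48-hour exposure period. TGI is the concentration that stops growth completely.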

Tests used:
Assay in all cases: inhibition of tumour cell growth, NCI panel, 48 h
NCI-H522 lung = system: NCI-H522 lung
UACC-62 melanoma = system: UACC-62 melanoma
UO-31 renal = system: UO-31 renal
EKVX NSCLC = system: EKVX NSCLC
T-47D breast = system: T-47D breast
HCC-2998 colon = system: HCC-2998 colon
U251 CNS = system: U251 CNS
MALME-3M melanoma = system: MALME-3M melanoma
A498 renal = system: A498 renal
CCRF-CEM leukemia = system: CCRF-CEM leukemia
NCI-H23 lung = system: NCI-H23 lung
KM12 colon = system: KM12 colon
ACHN renal = system: ACHN renal
SF-295 CNS = system: SF-295 CNS
SK-MEL-5 melanoma = system: SK-MEL-5 melanoma
HL-60(TB) leukemia = system: HL-60(TB) leukemia
HOP-92 NSCLC = system: HOP-92 NSCLC
SNB-19 CNS = system: SNB-19 CNS
UACC-257 melanoma = system: UACC-257 melanoma
SF-268 CNS = system: SF-268 CNS
SW-620 colon = system: SW-620 colon
MDA-N = system: MDA-N
OVCAR-3 ovarian = system: OVCAR-3 ovarian
OVCAR-8 ovarian = system: OVCAR-8 ovarian
HOP-62 NSCLC = system: HOP-62 NSCLC
OVCAR-5 ovarian = system: OVCAR-5 ovarian
IGROV1 ovarian = system: IGROV1 ovarian
MDA-MB-435 = system: MDA-MB-435
COLO 205 colon = system: COLO 205 colon
M14 melanoma = system: M14 melanoma
HS 578T breast = system: HS 578T breast
HCT-15 colon = system: HCT-15 colon
TK-10 renal = system: TK-10 renal
PC-3 prostate = system: PC-3 prostate
A549 NSCLC = system: A549 NSCLC
BT-549 breast = system: BT-549 breast
RPMI-8226 leukemia = system: RPMI-8226 leukemia
DU-145 prostate = system: DU-145 prostate
MOLT-4 leukemia = system: MOLT-4 leukemia
SF-539 CNS = system: SF-539 CNS
NCI-H226 lung = system: NCI-H226 lung
SK-MEL-2 melanoma = system: SK-MEL-2 melanoma
HCT-116 colon = system: HCT-116 colon
NCI/ADR-RES ovarian = system: NCI/ADR-RES ovarian
OVCAR-4 ovarian = system: OVCAR-4 ovarian
SK-MEL-28 melanoma = system: SK-MEL-28 melanoma
K-562 leukemia = system: K-562 leukemia
SN12C renal = system: SN12C renal
786-0 renal = system: 786-0 renal
LOX IMVI melanoma = system: LOX IMVI melanoma
MDA-MB-231 breast = system: MDA-MB-231 breast
MCF7 breast = system: MCF7 breast
NCI-H460 lung = system: NCI-H460 lung
CAKI-1 renal = system: CAKI-1 renal
SK-OV-3 ovarian = system: SK-OV-3 ovarian
SR leukemia = system: SR leukemia
HT29 colon = system: HT29 colon
RXF 393 renal = system: RXF 393 renal
SNB-75 CNS = system: SNB-75 CNS

CCCCCCCSCC(O)COC(c1ccccc1)(c1ccccc1)c1ccccc1 (stereo not given)
TGI (NCI-H522 lung): > 100 µM | TGI (UACC-62 melanoma): > 100 µM | TGI (UO-31 renal): 27.8 µM | TGI (EKVX NSCLC): > 100 µM | TGI (T-47D breast): > 100 µM | TGI (HCC-2998 colon): > 100 µM | TGI (U251 CNS): > 100 µM | TGI (MALME-3M melanoma): > 100 µM | TGI (A498 renal): > 100 µM | TGI (CCRF-CEM leukemia): > 100 µM | TGI (NCI-H23 lung): 60.3 µM | TGI (KM12 colon): 16.9 µM | TGI (ACHN renal): 76.3 µM | TGI (SF-295 CNS): > 100 µM | TGI (SK-MEL-5 melanoma): 47.9 µM | TGI (HL-60(TB) leukemia): 63.9 µM | TGI (HOP-92 NSCLC): > 100 µM | TGI (SNB-19 CNS): > 100 µM | TGI (UACC-257 melanoma): > 100 µM | TGI (SF-268 CNS): 66.8 µM | TGI (SW-620 colon): > 100 µM | TGI (MDA-N): > 100 µM | TGI (OVCAR-3 ovarian): > 100 µM | TGI (OVCAR-8 ovarian): > 100 µM | TGI (HOP-62 NSCLC): > 100 µM | TGI (OVCAR-5 ovarian): > 100 µM | TGI (IGROV1 ovarian): > 100 µM | TGI (MDA-MB-435): > 100 µM | TGI (COLO 205 colon): > 100 µM | TGI (M14 melanoma): > 100 µM | TGI (HS 578T breast): 50.1 µM | TGI (HCT-15 colon): > 100 µM | TGI (TK-10 renal): > 100 µM | TGI (PC-3 prostate): > 100 µM | TGI (A549 NSCLC): > 100 µM | TGI (BT-549 breast): > 100 µM | TGI (RPMI-8226 leukemia): 87.3 µM | TGI (DU-145 prostate): > 100 µM | TGI (MOLT-4 leukemia): > 100 µM | TGI (SF-539 CNS): > 100 µM | TGI (NCI-H226 lung): 85 µM | TGI (SK-MEL-2 melanoma): 52.5 µM | TGI (HCT-116 colon): > 100 µM | TGI (NCI/ADR-RES ovarian): > 100 µM | TGI (OVCAR-4 ovarian): > 100 µM | TGI (SK-MEL-28 melanoma): > 100 µM | TGI (K-562 leukemia): > 100 µM | TGI (SN12C renal): > 100 µM | TGI (786-0 renal): > 100 µM | TGI (LOX IMVI melanoma): > 100 µM | TGI (MDA-MB-231 breast): > 100 µM | TGI (MCF7 breast): > 100 µM | TGI (NCI-H460 lung): > 100 µM | TGI (CAKI-1 renal): > 100 µM | TGI (SK-OV-3 ovarian): > 100 µM | TGI (SR leukemia): 85.4 µM | TGI (HT29 colon): 68.5 µM

Cc1[nH]c2ccccc2c1C=Nc1ccc(Oc2ccccc2)cc1
TGI (NCI-H522 lung): 31.6 µM | TGI (UACC-62 melanoma): 32 µM | TGI (UO-31 renal): 24.4 µM | TGI (EKVX NSCLC): 27.4 µM | TGI (T-47D breast): 40.5 µM | TGI (U251 CNS): 29.3 µM | TGI (MALME-3M melanoma): 34.6 µM | TGI (A498 renal): 37 µM | TGI (CCRF-CEM leukemia): 28.9 µM | TGI (NCI-H23 lung): 32.1 µM | TGI (KM12 colon): 31.4 µM | TGI (ACHN renal): 30.8 µM | TGI (SF-295 CNS): 29.1 µM | TGI (SK-MEL-5 melanoma): 28.9 µM | TGI (HL-60(TB) leukemia): 32.3 µM | TGI (HOP-92 NSCLC): 31.2 µM | TGI (SNB-19 CNS): 33.1 µM | TGI (UACC-257 melanoma): 31.8 µM | TGI (SF-268 CNS): 34.1 µM | TGI (SW-620 colon): 42.6 µM | TGI (MDA-N): 31.9 µM | TGI (OVCAR-3 ovarian): 27.6 µM | TGI (OVCAR-8 ovarian): 43.4 µM | TGI (OVCAR-5 ovarian): 30 µM | TGI (IGROV1 ovarian): 28.3 µM | TGI (MDA-MB-435): 31.8 µM | TGI (COLO 205 colon): 30.1 µM | TGI (M14 melanoma): 30.3 µM | TGI (HS 578T breast): 52 µM | TGI (RXF 393 renal): 31.7 µM | TGI (HCT-15 colon): 35 µM | TGI (TK-10 renal): 30.2 µM | TGI (PC-3 prostate): 26.9 µM | TGI (A549 NSCLC): 32.3 µM | TGI (BT-549 breast): 35.5 µM | TGI (RPMI-8226 leukemia): 35.4 µM | TGI (DU-145 prostate): 30.4 µM | TGI (MOLT-4 leukemia): 35.7 µM | TGI (SF-539 CNS): 33 µM | TGI (SNB-75 CNS): 26.1 µM | TGI (SK-MEL-2 melanoma): 34.3 µM | TGI (HCT-116 colon): 31.3 µM | TGI (NCI/ADR-RES ovarian): 38.8 µM | TGI (OVCAR-4 ovarian): 34.6 µM | TGI (SK-MEL-28 melanoma): 34.7 µM | TGI (K-562 leukemia): 58.1 µM | TGI (SN12C renal): 31.9 µM | TGI (786-0 renal): 30.3 µM | TGI (LOX IMVI melanoma): 32.8 µM | TGI (MDA-MB-231 breast): 32.2 µM | TGI (MCF7 breast): 39.7 µM | TGI (NCI-H460 lung): 40 µM | TGI (CAKI-1 renal): 30.4 µM | TGI (SK-OV-3 ovarian): 32 µM | TGI (SR leukemia): 51 µM | TGI (HT29 colon): 31.3 µM

Cc1cc2c(-c3ccccc3)cc(=O)[nH]c2cc1N
TGI (UACC-62 melanoma): > 100 µM | TGI (UO-31 renal): > 100 µM | TGI (EKVX NSCLC): > 100 µM | TGI (T-47D breast): > 100 µM | TGI (HCC-2998 colon): > 100 µM | TGI (U251 CNS): > 100 µM | TGI (A498 renal): > 100 µM | TGI (CCRF-CEM leukemia): > 100 µM | TGI (NCI-H23 lung): > 100 µM | TGI (KM12 colon): > 100 µM | TGI (ACHN renal): > 100 µM | TGI (SF-295 CNS): > 100 µM | TGI (SK-MEL-5 melanoma): > 100 µM | TGI (HOP-92 NSCLC): > 100 µM | TGI (SNB-19 CNS): > 100 µM | TGI (UACC-257 melanoma): > 100 µM | TGI (SW-620 colon): > 100 µM | TGI (MDA-N): > 100 µM | TGI (OVCAR-3 ovarian): > 100 µM | TGI (OVCAR-8 ovarian): > 100 µM | TGI (HOP-62 NSCLC): > 100 µM | TGI (OVCAR-5 ovarian): > 100 µM | TGI (IGROV1 ovarian): > 100 µM | TGI (MDA-MB-435): > 100 µM | TGI (COLO 205 colon): > 100 µM | TGI (M14 melanoma): > 100 µM | TGI (RXF 393 renal): > 100 µM | TGI (HCT-15 colon): > 100 µM | TGI (PC-3 prostate): > 100 µM | TGI (A549 NSCLC): > 100 µM | TGI (BT-549 breast): > 100 µM | TGI (RPMI-8226 leukemia): > 100 µM | TGI (DU-145 prostate): > 100 µM | TGI (MOLT-4 leukemia): > 100 µM | TGI (SF-539 CNS): > 100 µM | TGI (NCI-H226 lung): > 100 µM | TGI (SNB-75 CNS): > 100 µM | TGI (SK-MEL-2 melanoma): > 100 µM | TGI (HCT-116 colon): > 100 µM | TGI (NCI/ADR-RES ovarian): > 100 µM | TGI (OVCAR-4 ovarian): > 100 µM | TGI (SK-MEL-28 melanoma): > 100 µM | TGI (K-562 leukemia): > 100 µM | TGI (SN12C renal): > 100 µM | TGI (786-0 renal): > 100 µM | TGI (LOX IMVI melanoma): > 100 µM | TGI (MDA-MB-231 breast): > 100 µM | TGI (MCF7 breast): > 100 µM | TGI (NCI-H460 lung): > 100 µM | TGI (CAKI-1 renal): > 100 µM | TGI (SR leukemia): > 100 µM | TGI (HT29 colon): > 100 µM
